For assay [1], the species on record is Rattus norvegicus. As to the kind of experiment: Negative logarithm of the molar concentration of compound required to relax rat aorta precontracted with 30 mM KCl by 50%. Format: functional.
Assay [2] is filed under the species Rattus norvegicus. The experiment in a line: Percent intrinsic activity was measured in rat aorta. Format: functional.

Regarding `C/N=C(/NC#N)C1=CC(C)(C)Oc2ccc(C#N)cc21`, the EC50 in the assay filed under Rattus norvegicus [1] was 0.339 µM. Also, in the assay filed under Rattus norvegicus [2], the IA turned out to be 73%.

`CNC(=O)C1=CC(C)(C)Oc2ccc(C#N)cc21`: the EC50 in the assay listed under Rattus norvegicus [1] is 0.263 µM. The compound further registered an IA in the assay listed under Rattus norvegicus [2] of 66.6%.

The compound `C/N=C(/S)C1=CC(C)(C)Oc2ccc(C#N)cc21` displayed an IA in the assay listed under Rattus norvegicus [2] of 89%.

The compound `CC(C)(C)/N=C(/NC#N)Nc1cccnc1` showed an EC50 in the assay filed under Rattus norvegicus [1] of 0.0912 µM. Also, in the assay filed under Rattus norvegicus [2], the IA came to 88%.

`CC1(C)Oc2ccc(C#N)cc2[C@@H](N2CCCC2=O)[C@@H]1O` [CROMAKALIM] gave an IA in the assay listed under Rattus norvegicus [2] of 74.7%.

Compound `CC(N/C(=N\C#N)Nc1ccncc1)C(C)(C)C` (stereo not given) [PINACIDIL ANHYDROUS] gave an EC50 in the assay listed under Rattus norvegicus [1] of 0.724 µM. The compound also yielded an IA in the assay filed under Rattus norvegicus [2] of 91.9%.

In general, EC50 refers to the midpoint of the concentration-response curve.

The values above are taken from ChEMBL document CHEMBL1127213, “Design of potent K+ channel openers by pharmacophore model” (Bioorg Med Chem Lett, 1993).
